Measured values from patent US12297224B2, “Crystal form, preparation method, and application of 4'-substituted nucleoside” (Henan Genuine Biotech Co., Ltd., priority 2018, dated 2025).
pEC50, pIC50: −log10 of the molar value. Read-outs that look alike come from different tables or passages of the source.

Key:
[1] = Drug concentration in PBMC after oral administration in rhesus monkeys; format: in vivo; design: concentration of Ig-TP in PBMC: unit not given here; settings: for Drug concentration in PBMC, Compound 3TC-TP: oral 3TC 20 mg/kg
Protocol: The PBMC was separated from the remaining venous blood with Ficoll-Paque separation medium, condensed to 0.3 mL of cell suspension, counted, and stored frozen below −20° C.
The PBMC sample was crushed with an ultrasonic cell crusher, followed by addition of 3 times volume of acetonitrile, vortexed for 60 seconds, followed by 1 volume of the water, vortexed for 60 seconds, and centrifuged at 3000 rpm for 5 minutes; the supernatant was aspirated, transferred into a 10 mL round-bottom glass tube, dried in a stream of nitrogen at 40° C., and redissolved in 500 μL of methanol solution (methanol: water=2:8 (v/v)); the resulting solution was vortexed for 60 seconds, transferred into a 1.5 mL EP tube, centrifuged at 13000 rpm for 5 minutes, filtered, and centrifuged to obtain […] of supernatant for […] analysis.

[2] = Drug concentration in plasma after oral administration in rhesus monkeys; format: in vivo; settings: oral 6 mg/kg compound Ia, 24 hours
[3] = in vitro; format: cell-based; settings: human
Protocol: (§1) CD4^+ T cells (Hut/CCR5) were plated into the wells of a 96-well plate ([…]), followed by addition of different compounds to be tested; the 96-well plate was incubated at 37° C. in an incubator for 3 days; 20 μL of MTT solution was added into the wells ([…]) of the 96-well plate; the 96-well plate was incubated at 37° C. in the incubator for 4 hours; 100 μL of Formazan solution was added into the wells of the 96-well plate; the 96-well plate was incubated at 37° C. in the incubator until the complete dissolution of Formazan was observed by a common optical microscope; and the absorbance of the solution was measured at 570 nm (as shown in FIGS. 2 and 4).
(§2) The cytotoxicity of the compound Ig-TP on CD4^+ T cells (Hut/CCR5) was measured using MTT assay.

[4] = test system: HIV-1 (HIV-luc/JRFL); assay: microbe, parasite or virus in culture; format: cell-based; settings: for pEC50: read-out: anti-HIV activity EC50 (50% effective concentration)
Excerpt: The plasmids used for packaging pseudotyped single-cycle infectious HIV-1 (HIV-luc/JRFL) are as follows: the plasma pLAI-Aenv-Luc contains HIV-1 isolate in which Env and Vpr genes are deleted and luciferase gene is inserted into the Nef locus; and the plasma pJRFL contains CCR5-tropic HIV-1 env gene; the two plasmas are co-transfected into HEK293T cells; the supernatant was collected, filtered, and packaged; and the virion capture was quantified by […] ELISA.
(§3) CD4^+ T cells (Hut/CCR5) were cultured in RPMI 1640 medium (Gibco) containing 10% fetal bovine serum (Gibco), 100 U/mL penicillin (Invitrogen), and 100 […] (Invitrogen). 1×10^5 Hut/CCR5 cells were added to the compound Ia or Ib, infected with HIV-luc/JRFL (1 ng p24gag), incubated at 37° C. for 3 hours, washed to remove free virus, and resuspended in cell culture medium, followed by addition of the corresponding compound to be tested, incubated at 37° C. for 3 days, and collected for measurement of the luciferase activity and calculation of the percentage of viral inhibition.
as §3, with “in” for “in RPMI”, “Ig-TP (CL-002-TP),” for “Ia or Ib,”, “virus” for “viral”

[5] = test system: CD4+ T cells (Hut/CCR5); assay: in vitro; format: cell-based
Protocol: as §1, §2

[6] = test system: HIV; settings: literature (Michailidis et al 2009); read-out: anti-HIV EC50; cited from earlier work
[7] = Human immunodeficiency virus 1, Hut/CCR5, 72 h

Nc1ccn([C@@H]2CS[C@H](COP(=O)(O)OP(=O)(O)OP(=O)(O)O)O2)c(=O)n1 [Compound 3TC-TP, reference compound]
Drug concentration in PBMC, Compound 3TC-TP ([1]; 1 h): 0.51 pmol/10^6 cells | Drug concentration in PBMC, Compound 3TC-TP ([1]; 6 h): 2.45 pmol/10^6 cells

C#CC1(CO)OC(n2cnc3c(N)nc(F)nc32)C(F)C1O (stereo not drawn) [Compound Ia]
compound Ia in plasma [2]: undetectable | CC50 at 3 days [3]: > 8 µM | pEC50 [4, 7]: 9.05

[N-]=[N+]=NC1(COP(=O)(O)OP(=O)(O)OP(=O)(O)O)OC(n2ccc(N)nc2=O)CC1O (stereo not drawn) [Compound Ig-TP]
CC50 [5]: 8.13 µM | cytotoxicity CC50 [5]: 2,328 ng/ml | Drug concentration in PBMC, Compound Ig-TP ([1]; oral compound Ig 1 mg/kg, 1 h): 0.39 pmol/10^6 cells | Drug concentration in PBMC, Compound Ig-TP ([1]; oral compound Ig 1 mg/kg, 6 h): 2.10 pmol/10^6 cells | Drug concentration in PBMC, Compound Ig-TP ([1]; oral compound Ig 1 mg/kg, 24 h): 0.29 pmol/10^6 cells | Drug concentration in PBMC, Compound Ig-TP ([1]; oral compound Ig 1 mg/kg, 72 h): 0.66 pmol/10^6 cells | Drug concentration in PBMC, Compound Ig-TP ([1]; oral compound Ig 1 mg/kg, 120 h): 0.54 pmol/10^6 cells | Drug concentration in PBMC, Compound Ig-TP ([1]; oral compound Ig 6 mg/kg, 1 h): 0.23 pmol/10^6 cells | Drug concentration in PBMC, Compound Ig-TP ([1]; oral compound Ig 6 mg/kg, 6 h): 4.07 pmol/10^6 cells | Drug concentration in PBMC, Compound Ig-TP ([1]; oral compound Ig 6 mg/kg, 24 h): 0.44 pmol/10^6 cells | Drug concentration in PBMC, Compound Ig-TP ([1]; oral compound Ig 6 mg/kg, 72 h): 1.85 pmol/10^6 cells | Drug concentration in PBMC, Compound Ig-TP ([1]; oral compound Ig 6 mg/kg, 120 h): 1.35 pmol/10^6 cells | concentration of Ig-TP in PBMC ([1]; rhesus monkeys, oral 6 mg/kg compound Ig, 120 hours (5 days)): 1.35 | inhibition of HIV viral proliferation IC50 ([4]; Hut/CCR5 cells, HIV-luc/JRFL): 0.373 ng/mL | pEC50 ([4]; Hut/CCR5 cells, HIV-luc/JRFL, 3 days): 8.89 | pIC50 ([4]; Hut/CCR5 cells, HIV-luc/JRFL, read-out: inhibition of HIV viral proliferation IC50): 8.89

C#C[C@]1(CO)O[C@@H](n2cnc3c(N)ncnc32)C[C@@H]1O [EdA, 4′-ethynyl-2′-deoxyadenosine]
pEC50 [6]: 7.96

[N-]=[N+]=NC1(CO)OC(n2cnc3c(N)nc(F)nc32)C(F)C1O (stereo not drawn) [Ib]
CC50 at 3 days [3]: > 149 µM | pEC50 [4, 7]: 9.21
